Test results: patent US11426403B2 (ST IP Holding AG, priority 2016, dated 2022)
pIC50: −log10 of the molar value. Like-named read-outs stand apart in the source and are kept apart here.

Columns and labels:
[1] = test system: oral mucositis induced by acute radiation, left buccal cheek pouch
Procedure: Twenty-four (24) male Syrian Golden Hamsters were used in the study. Mucositis was induced by giving an acute radiation dose of 40 Gy directed to the left buccal cheek pouch on Day 0. Mucositis was evaluated clinically starting on Day 6, and continuing on alternate days until Day 28.
Mucositis was scored visually by comparison to a validated photographic scale, ranging from 0 for normal, to 5 for severe ulceration (clinical scoring). In descriptive terms, this scale is defined as described in Table 7 below: […]
A mucositis score of 3 or greater indicates ulcerative mucositis, a clinically significant threshold.
Statistical significance of observed differences was calculated using chi-squared analysis.
An analysis of the severity of mucositis was performed using the Mann-Whitney rank sum analysis to compare the visual mucositis scores for Groups 2 and 3 to the vehicle control group (Group 1) on each day of the analysis. In this analysis, 2 consecutive days of significant reduction in the mucositis score are generally required before it is regarded as clinically meaningful.
The significance of group differences observed in daily mucositis scores was determined using the Mann-Whitney rank sum test. This nonparametric statistic is appropriate for the visual mucositis scoring scale. The p-values for each calculation are shown. “x” denotes significant difference in mucositis scores. “y” denotes increase in comparison to vehicle Group […], “z” denotes decrease.
“y” denotes an increase in comparison to vehicle Group, “z” denotes decrease (improvement).

[2] = hamster, Days -3 to 28, topical 1 mg/dose BID
[3] = test system: primary human gingival epithelial cells (HGEPp); settings: pretreated 24 h at 50 to 800 ug/ml, then 0.3 mM H2O2 for 4 h; P<0.05 versus PC
Procedure: (§1) Pooled primary HGEPps were propagated in CnT-Prime epithelial culture medium provided by CellnTec on 100 mm petri dishes coated with 30 mg/ml Type I rat tail collagen (BD Biosciences) diluted in Dulbecco's phosphate-buffered saline (DPBS). […] The cells were harvested when they reached 70-90% confluency as observed by light microscopy. For routine cultivation, the medium was changed every 3 days. For both the cell viability and ROS assays, the cells from passages 3-7 were seeded at 5×10 3, 2.5×10 4, 5×10^4 cells/cm 2 density to grow cell monolayers in 24-well flat-bottomed tissue culture plates and acclimated overnight at 37° C. […]
(§2) Once the HGEPp cells were cultured and ready on the microplate, the media was removed from all the wells and discarded. […] Removed the plate cover and measured the absorbance of the wells, including the blanks at 570 nm. • 8. Determined the average values from triplicate readings after subtracting the average value for the blanks.
(§3) HGEPp cells were exposed to different concentrations of H2O2 for 4 h to examine H2O2-induced oxidative stress. The cells were exposed to 0-0.6 mM H2O2 for 4 h and cell viability was evaluated using the TACS MTT Cell Proliferation Assay Kit. The percentage of cell survival was determined using the ratio of the optical density (OD) of the test sample to the OD of the control×100%. […]

[4] = test system: primary human gingival epithelial cells (HGEPp); assay: cells; settings: Epithelial cell, 4 h, read-out: IC50 of H2O2 in HGEPp cells
Procedure: as §1, §2, §3

[5] = test system: reactive oxygen species within HGEPp cells; settings: 0.3 mM H2O2 for 4 h
Text: 2. measure the effect of recrystallized oltipraz and formulated oltipraz on hydroxyl, peroxyl and other reactive oxygen species within HGEPp cells, using Cell Biolabs' OxiSelect™ Intracellular ROS Assay Kit. This assay employs the cell-permeable fluorogenic probe 2′,7′-dichlorodihydrofluorescin diacetate (DCFH-DA) which diffuses into cells and is deacetylated by cellular esterases to a nonfluorescent DCFH which is then rapidly oxidized to highly fluorescent 2′,7′-dichlorodihydrofluorescein (DCF) by ROS.
Pooled primary HGEPps were propagated in CnT-Prime epithelial culture medium provided by CellnTec on 100 mm petri dishes coated with 30 mg/ml Type I rat tail collagen (BD Biosciences) diluted in Dulbecco's phosphate-buffered saline (DPBS). […] The cells were harvested when they reached 70-90% confluency as observed by light microscopy. For routine cultivation, the medium was changed every 3 days. […]
Prepared and mixed all reagents thoroughly before use. […] Once the HGEPp cells were cultured and ready on a microplate, the media was removed from all the wells and discarded. […] Fluorescence was read on a Fluorescence Plate Reader after 1 hour. […] Transferred 150 μL of the mixture to a fresh 24-well plate for fluorescence measurements at 530 nm. […]
Intracellular ROS was measured using a Spectramax M3 microplate reader.

Structure (SMILES) | Percent of Animals with Ulceration (Score ≥ 3) ([1]; Day 6) | Percent of Animals with Ulceration (Score ≥ 3) ([1]; Day 8) | Percent of Animals with Ulceration (Score ≥ 3) ([1]; Day 10) | Percent of Animals with Ulceration (Score ≥ 3) ([1]; Day 12) | Percent of Animals with Ulceration (Score ≥ 3) ([1]; Day 14) | Percent of Animals with Ulceration (Score ≥ 3) ([1]; Day 16) | Percent of Animals with Ulceration (Score ≥ 3) ([1]; Day 18) | Percent of Animals with Ulceration (Score ≥ 3) ([1]; Day 20) | Percent of Animals with Ulceration (Score ≥ 3) ([1]; Day 22) | Percent of Animals with Ulceration (Score ≥ 3) ([1]; Day 24) | Percent of Animals with Ulceration (Score ≥ 3) ([1]; Day 26) | Percent of Animals with Ulceration (Score ≥ 3) ([1]; Day 28) | mean daily percent body weight change (rate of weight gain) [2] | effect on H2O2-induced decrease in HGEPp survival (MTT) [3] | pIC50 [4] | ROS levels compared to normal control cells (100%) [5]
Cc1c(-c2cnccn2)ssc1=S [Neat oltipraz, 4-methyl-5-(pyrazin-2-yl)-3H-1,2-dithiole-3-thione] | 0.0% | 0.0% | 0.0 z Percent | 50.0 y Percent | 100.0% | 100.0% | 100.0% | 100.0% | 100.0% | 50.0 z Percent | 25.0 z Percent | 25.0 z Percent | gained weight at a slower rate than those administered placebo | promoted cell proliferation and reduced H2O2-induced decrease in HGEPp survival | – | –
OO [Sample H2O2, hydrogen peroxide] | – | – | – | – | – | – | – | – | – | – | – | – | – | – | 3.52 | 128%
